The text below walks through data of patent EP3954371B1, “ANTI-ACETYLCHOLINESTERASE ACTIVE COMPOSITION IN CAULIS MAHONIAE AND SCREENING METHOD THEREFOR AND APPLICATION THEREOF” (Shenzhen Institute for Drug Control (Shenzhen Testing …, priority 2019, dated 2021).

Experiment [1] deals with T1, AChE (Homo sapiens, UniProt P22303).
T1 construct: purchased Sigma
The experiment can be described thus: synergistic effect of combined active components (FIC) by AChE assay method. It is filed as biochemical. To be noted: for effect of combinations when used as the first alkaloid: first alkaloid diluted stepwise, other alkaloids fixed at IC30; for IC20 / IC80 / IC90 / IC50: first compound diluted, added compounds fixed at IC30, unit not in table; for IC20: read-out: IC Value (Standard Deviation) IC20; for IC80: read-out: IC Value (Standard Deviation) IC80; for IC90: read-out: IC Value (Standard Deviation) IC90; for IC50: read-out: IC Value (Standard Deviation) IC50 (converted). The protocol:
One pharmaceutical component, compound A, was selected and diluted step by step according to 1:1; the concentration of a second pharmaceutical component, compound B, was fixed to IC30; based on a size of a fractional inhibitory concentration (FIC) value, the concentration of compound A was fixed, the concentration of pharmaceutical compound B was changed, and the FIC value was determined.
Fractional effects (FEs) of the two compounds are as follows: FEA = IC50 (A+B)/IC50 (A) [formula] FEB = IC50 (A+B)/IC50 (B) [formula] FIC = FEA + FEB [formula]
By analogy, all possible combinations were calculated. Table 4 Dilution concentration and fold

Experiment [2] addresses T1, AChE. The experiment can be described thus: biochemical. To be noted: mean ± standard deviation, repeated three times; 10 min at 37 °C, absorbance at 405 nm. The protocol: For the reaction system, see Table 3. The specific steps are described below.
140 µL of phosphate buffer (PBS, 0.1 mol/L, pH = 7.4), 20 µL of AChE (0.303 U/mL) and 20 µL of sample solution were added in sequence to a 96-well plate, mixed evenly, and added with 10 µL of DTNB (3.3 mM) and 10 µL of acetylthiocholine iodide (ATCI) (15 mM). They were mixed evenly and incubated for 10 min at 37 °C, then measured absorbance at 405 nm.
The sample was replaced with PBS in a blank enzyme group. The sample was replaced with PBS in a blank enzyme-free group. The enzyme solution was replaced with PBS in the sample control group.
The inhibitory rate of the sample against AChE activity is calculated by the following formula: Inhibitory rate = [1−(Asample−Asample control)/(Ablank enzyme−Ablank enzyme−free)] × 100% [formula]
The median inhibitory concentration of AChE was calculated by testing inhibitory rates at different sample concentrations. […] Table 3 Anti-AChE activity screening method

In experiment [3] the target is T1, AChE. It is filed as binding. Particulars: 20 µg/mL in ammonium acetate buffer (10 mM, pH = 7.4) for standards; FIGS. 4A, 4B, 5.
Procedure: In a first step, a mobile phase, the ammonium acetate buffer (10 mM, pH = 7.4), was provided by a peristaltic pump at a flow rate of 5 µL/min and a sample was injected at a volume of 100 µL, and the process lasted for 40 min, then fractions were collected.
In a second step, the mobile phase was changed from the ammonium acetate buffer (10 mM, pH = 7.4) to methanol and provided at a flow rate of 20 µL/min and target components were dissociated from proteins, and the process lasted for 20 min, then fractions were collected.
A blank control monolithic column, Control-ICER, was set by the same operation method and the corresponding fractions were collected.
The collected fractions were blown to dryness with N2, dissolved in 100 µL of methanol, and analyzed through LC-MS.
LC-MS conditions: a chromatographic column Thermo Acclaim TM C18 (4.6 mm× 250 mm, 5 µm); mobile phases where acetonitrile was mobile phase A and 0.08% (v/v) formic acid and a 2 mM ammonium acetate solution were mobile phase B; a flow rate of 1.0 mL/min; an injection volume of 3 µL; a column temperature of 25 °C; and a detection wavelength of 280 nm. […]

T1 sequence (P22303 32-614): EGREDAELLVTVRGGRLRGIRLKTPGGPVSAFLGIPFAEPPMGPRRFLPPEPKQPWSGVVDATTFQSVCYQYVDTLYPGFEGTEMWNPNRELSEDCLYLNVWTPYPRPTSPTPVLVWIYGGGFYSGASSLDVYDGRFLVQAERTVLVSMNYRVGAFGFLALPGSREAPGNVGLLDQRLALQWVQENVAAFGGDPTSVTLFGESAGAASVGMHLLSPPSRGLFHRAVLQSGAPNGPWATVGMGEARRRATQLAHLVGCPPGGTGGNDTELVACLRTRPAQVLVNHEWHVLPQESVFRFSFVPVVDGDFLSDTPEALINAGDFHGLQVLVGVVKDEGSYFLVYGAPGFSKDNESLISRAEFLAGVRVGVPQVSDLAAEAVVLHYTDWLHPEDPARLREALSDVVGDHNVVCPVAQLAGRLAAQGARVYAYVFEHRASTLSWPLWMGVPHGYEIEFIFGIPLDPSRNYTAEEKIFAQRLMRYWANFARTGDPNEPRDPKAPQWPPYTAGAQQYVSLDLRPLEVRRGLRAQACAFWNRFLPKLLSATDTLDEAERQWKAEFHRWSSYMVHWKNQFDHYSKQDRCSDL

As to `COc1ccc2cc3[n+](cc2c1OC)CCc1cc2c(cc1-3)OCO2` [Ber, berberine], on AChE [1], the “effect of combinations when used as the first alkaloid” value (“effect of combinations when used” below) is on record as “only the irrelevant effect or the antagonistic effect”; the IC20 (commonly the concentration needed for an effect of 20%) was 0.26 µg/mL; the IC80 (in general, the concentration needed for an effect of 80%) turned out to be 24.1 µg/mL; the IC90 – broadly, the concentration at which the effect reaches the 90% level – is 50.2 µg/mL.

In the case of `COc1cc2c(cc1O)-c1cc3ccc(OC)c(OC)c3c[n+]1CC2` [Col, columbamine], on AChE [2], half-maximal inhibition (IC50) required 2.75 µM. For the same molecule, at AChE [1], the “effect of combinations when used” value is on record as “significant synergistic effect”; the IC20 came to 0.18 µg/mL; the IC50 – broadly, the concentration that inhibits the measured activity by half – was 2.75 µM; the IC80 amounted to 4.8 µg/mL. Moreover, the IC90 at AChE [1] is 12.5 µg/mL.

`COc1cc2c(cc1O)CC[n+]1cc3c(OC)c(OC)ccc3cc1-2` [Jat, jatrorrhizine]: half-maximal inhibition against AChE [2] (IC50) required 10.3 µM. Also, at AChE [1], the “effect of combinations when used” value is on record as “significant synergistic effect”, the IC20 worked out at 0.39 µg/mL, the IC50 is 10.3 µM and the 80% effect concentration (IC80) was found to be 31.4 µg/mL. Further, the IC90 on AChE [1] worked out at 63.2 µg/mL.

With `CCCC(=O)Nc1ccc(OCC(O)CNC(C)C)c(C(C)=O)c1` (centres unmarked) [acebutolol], at AChE [3], the “retention on AChE-ICER / Control-ICER (specific binding)” value is “remains neither on AChE-ICER nor on enzyme-inactive Control-ICER”.

In the case of `COc1cc2c(cc1OC)-c1cc3ccc(OC)c(OC)c3c[n+]1CC2` [Pal, palmatine], half-maximal inhibition against AChE [2] (IC50) required 4.31 µM. On AChE [1], the “effect of combinations when used” value is recorded as “only the irrelevant effect or the antagonistic effect”, the concentration for an effect of 20% (IC20) was 0.1 µg/mL, the IC50 is 4.31 µM and the concentration for an effect of 80% (IC80) stood at 22.8 µg/mL. For the same molecule, on AChE [1], the IC90 was 48.3 µg/mL.
